Here are results for 5 molecules from patent publication US7737138B2 (priority 2004, dated 2010).

The test system of data set [1] is fibroblast cells (3T6). Set-up: unit not given beside the values.
Data set [2] addresses tau-tau binding: truncated tau (residues 297-390; dGA) and full-length tau (T40) (Homo sapiens, UniProt P10636). The conditions noted are these: for IC50: read-out: B50.
The target in data set [3] is full-length tau (T40) / 12 kD PHF-core tau fragment in fibroblast cells (3T6) (Homo sapiens, UniProt P10636). As to the kind of experiment: cell-based. The class given is cell-based.
Sequence of full-length tau (T40) / 12 kD PHF-core tau fragment in fibroblast cells (3T6) (P10636 612-707): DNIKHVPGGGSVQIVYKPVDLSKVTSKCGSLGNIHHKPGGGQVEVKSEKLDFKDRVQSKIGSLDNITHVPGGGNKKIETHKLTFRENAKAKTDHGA
Data set [4] relates to viruses such as HIV and West Nile Virus. The conditions noted are these: MTC under the name Virostat, from Bioenvision Inc.; cited from earlier work.

Where a name gives a salt, the structure may show the parent alone. Read-outs that look alike come from different tables or passages of the source.

One may read the EC50 as the concentration that produces a half-maximal response.

Sequence of tau-tau binding: truncated tau (residues 297-390; dGA) and full-length tau (T40) (P10636 614-707): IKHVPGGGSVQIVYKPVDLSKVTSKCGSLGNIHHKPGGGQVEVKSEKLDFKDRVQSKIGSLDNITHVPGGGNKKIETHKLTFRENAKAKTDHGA

Turning to “1,9-Diethyl Ethylthioninium chloride [DEETC]”, in data set [1], the LD50 is given as 1.6 ± 0.4 (13). In data set [2], the IC50 was 3700 nM. The molecule further registered an EC50 in data set [3] of 0.6 nM.
For the molecule `CCN(CC)c1ccc2nc3ccc(N(CC)CC)cc3[s+]c2c1` [ETZ, Ethylthioninium Chloride (ETC) Zinc Chloride (Double Salt)], the B50 in data set [2] is recorded as 145.4 ± 5.7 (5). The molecule also returned an EC50 in data set [3] of 60 nM.
As to `CN(C)c1ccc2nc3ccc(N(C)C)cc3[s+]c2c1` [MTC, Methythioninium Chloride], the “viricidal activity in vitro” value in data set [4] is “potent viricidal activity”.
Consider Ethyl-thioninium iodide [ETI], for which, in data set [2] (concentration of compound required to inhibit the tau-tau binding by 50%, […]), the IC50 was > 500000 nM. In data set [3], this molecule registered an EC50 of 60 nM.
In the case of Ethylthioninium Chloride [ETC], the LD50 in data set [1] is recorded as 32.0 ± 4.0 (26). In addition, in data set [2], the IC50 was determined as 49000 nM. This molecule also yielded a concentration for a half-maximal effect (EC50) in data set [3] of 70 nM.
